Reference: article PMC10977697 (PLOS ONE, 2024)
Where no end group is shown, it is not given here.

The substances below were run on EpCAM (assay: Spot phage ELISA, EpCAM). Settings: spot phage ELISA signal-to-noise on EpCAM.
Assay type: binding, human
In the case of “CKQDSDCLLVCLGPNGFCG (disulfide (positions not given here)) [EpCAM EET I-II 28]”, the S/N is reported as 18. With “GCFRHYVRCKQDSDCLAGCVCWFDWSCG (disulfide (positions not given here)) [EpCAM EET I-II 13]” the S/N was 20.8. With “GCHRWGILCKQDSDCLAGCVCWQQGQCG (disulfide (positions not given here)) [EpCAM EET I-II 35]” the S/N was 15. For “GCIKNNLRCKQDSDCLAGCVCWYDAACG (disulfide (positions not given here)) [EpCAM EET I-II 32]”, the S/N was 16.9. For “GCKNDKIRCKQDSDCLAGCVCWEDPSCG (disulfide (positions not given here)) [EpCAM EET I-II 22]”, the S/N was 18.9. “GCMQWYIWCKQDSDCLAGCLYRSLPLD (disulfide (positions not given here)) [EpCAM EET I-II 9]” gave a S/N of 21.9. For “GCPRILMRCKQDSDCEAICG (disulfide (positions not given here)) [EpCAM EET I-II 8]”, the S/N was 21.9. “GCPRILMRCKQDSDCHAFCG (disulfide (positions not given here)) [EpCAM EET I-II 30]” gave a S/N of 17.5. “GCPRILMRCKQDSDCHPVCG (disulfide (positions not given here)) [EpCAM EET I-II 20]” showed a S/N of 19.5. For “GCPRILMRCKQDSDCHWFCG (disulfide (positions not given here)) [EpCAM EET I-II 15]”, the S/N was 20.7. Work on “GCPRILMRCKQDSDCHWVCG (disulfide (positions not given here)) [EpCAM EET I-II 39]” yielded a S/N of 6.6. With “GCPRILMRCKQDSDCLAGCGLSSGLVVW (disulfide (positions not given here)) [EpCAM EET I-II 1]” the S/N was 24. For “GCPRILMRCKQDSDCLAGCVCENGIMCG (disulfide (positions not given here)) [EpCAM EET I-II 25]”, the S/N was 18.6. With “GCPRILMRCKQDSDCLAGCVCPGNILCG (disulfide (positions not given here)) [EpCAM EET I-II 29]” the S/N was 17.9. With “GCPRILMRCKQDSDCLAGCVCWPGWPCG (disulfide (positions not given here)) [EpCAM EET I-II 7]” the S/N was 22. Substance “GCPRILMRCKQDSDCLAGCVCWPGWPCG (disulfide (positions not given here)) [EpCAM EET I-II 19]” has a S/N of 19.6. “GCPRILMRCKQDSDCLAGCVLNGLVSWYT (disulfide (positions not given here)) [EpCAM EET I-II 38]” gave a S/N of 7.1. For “GCPRILMRCKQDSDCLALCCNERNICG (disulfide (positions not given here)) [EpCAM EET I-II 18]”, the S/N was 19.7. With “GCPRILMRCKQDSDCLCGCV (disulfide (positions not given here)) [EpCAM EET I-II 11]” the S/N was 21.4. “GCPRILMRCKQDSDCLPVCG (disulfide (positions not given here)) [EpCAM EET I-II 17]” was tested, and the S/N was 19.8. Substance “GCPRILMRCKQDSDCMPVCG (disulfide (positions not given here)) [EpCAM EET I-II 4]” has a S/N of 23. With “GCPRILMRCKQDSDCQAFCG (disulfide (positions not given here)) [EpCAM EET I-II 23]” the S/N was 18.7. “GCPRILMRCKQDSDCQAVCG (disulfide (positions not given here)) [EpCAM EET I-II 27]” was tested, and the S/N was 18.1. “GCPRILMRCKQDSDCQLVCLFPGLLVG (disulfide (positions not given here)) [EpCAM EET I-II 36]” gave a S/N of 14.3. “GCPRILMRCKQDSDCQPFCG (disulfide (positions not given here)) [EpCAM EET I-II 6]” was tested, and the S/N was 22.2. “GCPRILMRCKQDSDCQPICG (disulfide (positions not given here)) [EpCAM EET I-II 21]” showed a S/N of 19.1. “GCPRILMRCKQDSDCQPVCG (disulfide (positions not given here)) [EpCAM EET I-II 5]” gave a S/N of 22.8. Substance “GCPRILMRCKQDSDCQPVCG (disulfide (positions not given here)) [EpCAM EET I-II 10]” has a S/N of 21.9. “GCPRILMRCKQDSDCQWFCG (disulfide (positions not given here)) [EpCAM EET I-II 12]” was tested, and the S/N was 20.9. “GCPRILMRCKQDSDCRPVCG (disulfide (positions not given here)) [EpCAM EET I-II 34]” was tested, and the S/N was 15.7. “GCPRILMRCKQDSDLSSWLCLCCYDSVC (disulfide (positions not given here)) [EpCAM EET I-II 37]” showed a S/N of 9.5. With “GCPRILMRCKQDSELSSWLCLCCSGLVC (disulfide (positions not given here)) [EpCAM EET I-II 14]” the S/N was 20.8. Work on “GCPRILMRCKQDSELSSWLCLCCSGSLC (disulfide (positions not given here)) [EpCAM EET I-II 26]” yielded a S/N of 18.3. Substance “GCPRILMRCKQDSGLSSWLCLCCSASVC (disulfide (positions not given here)) [EpCAM EET I-II 16]” has a S/N of 20.6. Substance “GCPRSHVRVFFSCKQDSDCLAGCVCFQVVC (disulfide (positions not given here)) [EpCAM EET I-II 31]” has a S/N of 17.4. For “GCRARPLVCKQDSDCLAGPNGFCG (disulfide (positions not given here)) [EpCAM EET I-II 24]”, the S/N was 18.6. With “GCRNTMVRCKQDSDCLAGCVCYFDPSCG (disulfide (positions not given here)) [EpCAM EET I-II 33]” the S/N was 15.8. In the case of “GCRRMGVRCKQDSDCLAGCVCWHDPQCG (disulfide (positions not given here)) [EpCAM EET I-II 3]”, the S/N is reported as 23. With “GCSFPLIRCKQDSDCQLVVLWSKRFCG (disulfide (positions not given here)) [EpCAM EET I-II 2]” the S/N was 23.6. With “GPTQSHYGQCGGAGYVGTIKCSGTTCQYVLKPQSQCLPGAS (disulfide (positions not given here)) [EpCAM CBD 54]” the S/N was 9.4. Work on “GPTQSHYGQCGGDGYHGAIHCSGTTCQYVMMNRSQCLPGAS (disulfide (positions not given here)) [EpCAM CBD 59]” yielded a S/N of 8.9. In the case of “GPTQSHYGQCGGDGYTGMIRCSGTTCQFVAKKHSQCLPGAS (disulfide (positions not given here)) [EpCAM CBD 40]”, the S/N is reported as 11.8. In the case of “GPTQSHYGQCGGDGYVGAILCSGTTCQHVSVFPSQCLPGAS (disulfide (positions not given here)) [EpCAM CBD 56]”, the S/N is reported as 9.3. In the case of “GPTQSHYGQCGGEGYKGAIVCSGTTCQQTKLQGSQCLPGAS (disulfide (positions not given here)) [EpCAM CBD 75]”, the S/N is reported as 7.7. “GPTQSHYGQCGGEGYLGALRCSGTTCQYTQIKPSQCLPGAS (disulfide (positions not given here)) [EpCAM CBD 8]” gave a S/N of 21.8. With “GPTQSHYGQCGGFGYHGYIVCSGTTCQSRQYDNSQCLPGAS (disulfide (positions not given here)) [EpCAM CBD 21]” the S/N was 17.2. In the case of “GPTQSHYGQCGGFGYIGVVRCSGTTCQPHQYFRSQCLPGAS (disulfide (positions not given here)) [EpCAM CBD 32]”, the S/N is reported as 15.1. Substance “GPTQSHYGQCGGFGYMGVMVCSGTTCQWIIRPFSQCLPGAS (disulfide (positions not given here)) [EpCAM CBD 25]” has a S/N of 16.9. “GPTQSHYGQCGGFGYQGAVVCSGTTCQFTHLGHSQCLPGAS (disulfide (positions not given here)) [EpCAM CBD 88]” gave a S/N of 5.9. For “GPTQSHYGQCGGFGYTGAIGCSGTTCQHVKYMRSQCLPGAS (disulfide (positions not given here)) [EpCAM CBD 7]”, the S/N was 22.6. For “GPTQSHYGQCGGGGYHGIICSGTTCQSREVVRSQCLPGAS (disulfide (positions not given here)) [EpCAM CBD 84]”, the S/N was 6.7. Substance “GPTQSHYGQCGGGGYIGAMPCSGTTCQPVRIP*SQCLPGAS (disulfide) [EpCAM CBD 26]” has a S/N of 16.6. With “GPTQSHYGQCGGGGYPGAIMCSGTTCQFVMAHKSQCLPGAS (disulfide (positions not given here)) [EpCAM CBD 77]” the S/N was 7.5. Substance “GPTQSHYGQCGGGGYRGVVCSGTTCQPFFVFGSQCLPGAS (disulfide (positions not given here)) [EpCAM CBD 22]” has a S/N of 17.1. With “GPTQSHYGQCGGGGYYGAISCSGTTCQPVRLIRSQCLPGAS (disulfide (positions not given here)) [EpCAM CBD 37]” the S/N was 13.0. “GPTQSHYGQCGGHGYHGWAICSGTTCQERIRHLSQCLPGAS (disulfide (positions not given here)) [EpCAM CBD 41]” was tested, and the S/N was 11.6. With “GPTQSHYGQCGGHGYMGSIKCSGTTCQYVEIVPSQCLPGAS (disulfide (positions not given here)) [EpCAM CBD 66]” the S/N was 8.6. “GPTQSHYGQCGGHGYQGIMRCSGTTCQQVYMRSSQCLPGAS (disulfide (positions not given here)) [EpCAM CBD 34]” was tested, and the S/N was 15.0. Work on “GPTQSHYGQCGGHGYVGMIACSGTTCQYLQKVPSQCLPGAS (disulfide (positions not given here)) [EpCAM CBD 13]” yielded a S/N of 19.5. With “GPTQSHYGQCGGIGYMGAIQCSGTTCQPIFLRNSQCLPGAS (disulfide (positions not given here)) [EpCAM CBD 6]” the S/N was 22.6. For “GPTQSHYGQCGGKGYFGAIVCSGTTCQSTQKYASQCLPGAS (disulfide (positions not given here)) [EpCAM CBD 62]”, the S/N was 8.8. “GPTQSHYGQCGGKGYFGIRCSGTTCQMVTYKPSQCLPGAS (disulfide (positions not given here)) [EpCAM CBD 33]” showed a S/N of 15.1. With “GPTQSHYGQCGGKGYHGFIRCSGTTCQVVYPEKSQCLPGAS (disulfide (positions not given here)) [EpCAM CBD 58]” the S/N was 9.2. In the case of “GPTQSHYGQCGGKGYNGYFVCSGTTCQWKAKTDSQCLPGAS (disulfide (positions not given here)) [EpCAM CBD 15]”, the S/N is reported as 19.3. Work on “GPTQSHYGQCGGKGYPGAIVCSGTTCQLVQSWRSQCLPGAS (disulfide (positions not given here)) [EpCAM CBD 63]” yielded a S/N of 8.7.
